The test system of series [1] is A549. The series is described as follows: Induction of cell cycle arrest in human A549 cells assessed as accumulation at G2/M phase at 5 uM after 24 hrs by flow cytometric analysis (reference value: 21.6%). Format: functional.
Series [2] relates to A549. The series is described as follows: Induction of cell cycle arrest in human A549 cells assessed as accumulation at G1 phase at 5 uM after 48 hrs by flow cytometric analysis (reference value: 57.8 to 65.5%). Format: functional. For orientation: Flow cytometry measures light scatter and fluorescence of single cells or particles in a stream.
Series [3] deals with A549. Briefly: Induction of cell cycle arrest in human A549 cells assessed as accumulation at S phase at 5 uM after 48 hrs by flow cytometric analysis (reference value: 10.4 to 12%). In kind it is functional.
Series [4] concerns A549. The series is described as follows: Induction of cell cycle arrest in human A549 cells assessed as accumulation at S phase at 5 uM after 24 hrs by flow cytometric analysis (reference value: 17.6%). Format: functional.
The target in series [5] is Voltage-dependent T-type calcium channel subunit alpha-1G (Homo sapiens, UniProt O43497). The series is described as follows: Inhibition of T type calcium channel Cav3.1 (unknown origin) expressed in HEK293T cells by patch clamp method relative to control. Format: cell-based.
In series [6] the test system is A549. Briefly: Induction of cell cycle arrest in human A549 cells assessed as accumulation at G1 phase at 5 uM after 24 hrs by flow cytometric analysis (reference value: 53.1%). Format: functional.
The subject of series [7] is A549. Briefly: Induction of cell cycle arrest in human A549 cells assessed as accumulation at sub G1 phase at 5 uM after 24 hrs by flow cytometric analysis (reference value: 7.8%). Format: functional.
Series [8] concerns A549. Briefly: Induction of cell cycle arrest in human A549 cells assessed as accumulation at sub G1 phase at 5 uM after 48 hrs by flow cytometric analysis (reference value: 1.9 to 4.9%). In kind it is functional.
For series [9], the system named is A549. Briefly: Cytotoxicity against human A549 cells assessed as reduction in cell viability by MTT assay. In kind it is functional, cell-based. In general terms: Tetrazolium assays rely on reduction of a dye to a coloured formazan, in cell work by metabolically active cells.
Series [10] concerns A549. Briefly: Induction of cell cycle arrest in human A549 cells assessed as accumulation at G2/M phase at 5 uM after 48 hrs by flow cytometric analysis (reference value: 22.1 to 25.4 %). Format: functional.
The nature of series [11]: Metabolic stability in human plasma assessed as parent compound remaining at 10 uM measured after 2 hrs. Particulars: read-out: Stabilty. In kind it is ADME, cell-free.
Series [12] is described as follows: Metabolic stability in rat plasma assessed as parent compound remaining at 10 uM measured after 2 hrs. In kind it is ADME, cell-free. Particulars: read-out: Stabilty.
Series [13] deals with A549. Briefly: Induction of cell cycle arrest in human A549 cells assessed as accumulation at S phase at 10 uM after 48 hrs by flow cytometric analysis (reference value: 12%). Format: functional.
Series [14] concerns A549. Briefly: Induction of cell cycle arrest in human A549 cells assessed as accumulation at S phase at 10 uM after 24 hrs by flow cytometric analysis (reference value: 17.6%). Format: functional.
Series [15] relates to A549. The series is described as follows: Induction of cell cycle arrest in human A549 cells assessed as accumulation at G1 phase at 10 uM after 24 hrs by flow cytometric analysis (reference value: 53.1%). Format: functional.
Series [16] deals with A549. Briefly: Induction of cell cycle arrest in human A549 cells assessed as accumulation at sub G1 phase at 10 uM after 48 hrs by flow cytometric analysis (reference value: 4.9%). In kind it is functional.
Series [17] concerns A549. The series is described as follows: Induction of cell cycle arrest in human A549 cells assessed as accumulation at sub G1 phase at 10 uM after 24 hrs by flow cytometric analysis (reference value: 7.8%). In kind it is functional.
Series [18] relates to A549. The series is described as follows: Induction of cell cycle arrest in human A549 cells assessed as accumulation at G2/M phase at 10 uM after 48 hrs by flow cytometric analysis (reference value: 25.4%). Format: functional.
Series [19] relates to A549. The series is described as follows: Induction of cell cycle arrest in human A549 cells assessed as accumulation at G2/M phase at 10 uM after 24 hrs by flow cytometric analysis (reference value: 21.6%). In kind it is functional.
For series [20], the system named is A549. Briefly: Induction of cell cycle arrest in human A549 cells assessed as accumulation at G1 phase at 10 uM after 48 hrs by flow cytometric analysis (reference value: 57.8%). In kind it is functional.
Series [21] in a line: Protein binding in human plasma at 10 uM after 4 hrs. Particulars: read-out: PPB (converted). Format: ADME, cell-free.
Series [22] in a line: Protein binding in rat plasma at 10 uM after 4 hrs. In kind it is ADME, cell-free. Particulars: read-out: PPB (converted).

We go through four compounds from ChEMBL document CHEMBL4715696, “In vitro synergistic anticancer activity of the combination of T-type calcium channel blocker and chemotherapeutic agent in A549 cells” (Bioorg Med Chem Lett, 2016).

Voltage-dependent T-type calcium channel subunit alpha-1G, sequence (O43497 whole entry): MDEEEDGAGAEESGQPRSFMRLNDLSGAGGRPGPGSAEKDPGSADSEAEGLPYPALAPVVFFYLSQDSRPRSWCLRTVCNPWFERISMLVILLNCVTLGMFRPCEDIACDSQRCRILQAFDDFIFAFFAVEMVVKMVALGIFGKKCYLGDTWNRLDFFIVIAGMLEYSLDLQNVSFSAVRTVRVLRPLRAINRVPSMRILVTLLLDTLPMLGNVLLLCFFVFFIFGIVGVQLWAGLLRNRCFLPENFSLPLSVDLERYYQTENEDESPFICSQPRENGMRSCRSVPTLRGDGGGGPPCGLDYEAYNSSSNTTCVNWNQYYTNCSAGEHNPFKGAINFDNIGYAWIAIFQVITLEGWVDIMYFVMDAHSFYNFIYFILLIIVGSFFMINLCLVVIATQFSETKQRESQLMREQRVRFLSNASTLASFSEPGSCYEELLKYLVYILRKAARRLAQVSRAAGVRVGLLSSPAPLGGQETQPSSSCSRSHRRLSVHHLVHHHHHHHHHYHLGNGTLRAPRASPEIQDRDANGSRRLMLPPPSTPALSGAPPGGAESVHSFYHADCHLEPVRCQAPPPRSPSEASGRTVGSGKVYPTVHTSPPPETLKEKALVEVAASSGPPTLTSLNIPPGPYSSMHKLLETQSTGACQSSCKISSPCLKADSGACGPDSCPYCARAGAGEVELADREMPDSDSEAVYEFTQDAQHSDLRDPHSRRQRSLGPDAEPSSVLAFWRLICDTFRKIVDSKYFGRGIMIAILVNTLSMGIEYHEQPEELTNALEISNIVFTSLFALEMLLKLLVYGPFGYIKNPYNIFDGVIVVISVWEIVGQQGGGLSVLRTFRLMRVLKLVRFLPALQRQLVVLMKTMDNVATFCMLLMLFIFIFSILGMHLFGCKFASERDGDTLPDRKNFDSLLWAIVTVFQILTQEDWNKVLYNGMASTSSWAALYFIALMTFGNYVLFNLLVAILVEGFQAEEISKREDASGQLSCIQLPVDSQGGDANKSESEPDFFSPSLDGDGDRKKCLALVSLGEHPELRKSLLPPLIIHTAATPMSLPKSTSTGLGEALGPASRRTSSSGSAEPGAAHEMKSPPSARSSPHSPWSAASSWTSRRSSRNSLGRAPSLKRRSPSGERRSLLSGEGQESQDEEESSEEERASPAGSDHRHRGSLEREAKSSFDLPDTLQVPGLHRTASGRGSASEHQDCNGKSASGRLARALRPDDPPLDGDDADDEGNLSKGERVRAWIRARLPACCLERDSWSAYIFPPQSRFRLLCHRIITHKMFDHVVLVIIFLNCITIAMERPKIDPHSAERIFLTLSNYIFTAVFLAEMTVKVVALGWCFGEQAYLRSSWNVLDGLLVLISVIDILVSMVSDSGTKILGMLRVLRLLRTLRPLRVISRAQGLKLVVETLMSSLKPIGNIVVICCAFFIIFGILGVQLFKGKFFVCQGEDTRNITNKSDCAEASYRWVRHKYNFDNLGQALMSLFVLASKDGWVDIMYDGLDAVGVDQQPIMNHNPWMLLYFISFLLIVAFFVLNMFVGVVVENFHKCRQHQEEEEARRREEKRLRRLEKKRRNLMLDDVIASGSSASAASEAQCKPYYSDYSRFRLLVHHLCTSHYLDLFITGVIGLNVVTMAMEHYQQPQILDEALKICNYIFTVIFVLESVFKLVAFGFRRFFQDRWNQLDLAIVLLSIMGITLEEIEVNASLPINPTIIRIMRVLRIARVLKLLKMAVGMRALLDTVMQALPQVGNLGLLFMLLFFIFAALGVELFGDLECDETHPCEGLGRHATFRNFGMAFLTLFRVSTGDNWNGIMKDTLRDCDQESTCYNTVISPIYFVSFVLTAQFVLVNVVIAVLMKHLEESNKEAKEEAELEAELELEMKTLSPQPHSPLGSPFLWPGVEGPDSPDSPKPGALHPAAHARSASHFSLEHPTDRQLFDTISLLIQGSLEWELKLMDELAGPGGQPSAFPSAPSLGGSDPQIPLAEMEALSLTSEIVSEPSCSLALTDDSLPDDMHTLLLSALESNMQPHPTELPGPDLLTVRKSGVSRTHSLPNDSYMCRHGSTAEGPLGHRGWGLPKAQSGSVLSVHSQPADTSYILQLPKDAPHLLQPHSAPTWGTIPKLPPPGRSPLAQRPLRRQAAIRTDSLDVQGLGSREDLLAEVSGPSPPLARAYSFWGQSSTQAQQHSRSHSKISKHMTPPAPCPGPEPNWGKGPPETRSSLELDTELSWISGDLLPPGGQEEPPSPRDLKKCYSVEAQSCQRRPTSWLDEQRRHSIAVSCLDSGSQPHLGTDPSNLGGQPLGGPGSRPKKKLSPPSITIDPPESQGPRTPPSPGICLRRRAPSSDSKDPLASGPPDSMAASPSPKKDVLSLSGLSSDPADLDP

`CN(C)CCCCCN(C)C1=Nc2ccccc2C(CC(=O)NCc2ccccc2)N1c1ccc(-c2ccccc2)cc1.Cl.Cl` (stereo not drawn): the Activity in the series with A549 [1] is reported as 2.2%; in the series with A549 [2] it was 1.2%; in the series with A549 [3] it was 0.6%; in the series on A549 [4], 8.8%; in the series with A549 [6], 33.6%; in the series with A549 [7], 55.3%. Besides, the Activity with A549 [8] was found to be 98.1%; in the series with A549 [10], 0.1%. Moreover, the half-maximal inhibitory concentration (IC50) in series [5] came out at 0.51 µM; in the series with A549 [9] it was 4.7 µM.
Turning to `CCN(CC)CCOC(=O)c1ccc(N)cc1` [PROCAINE], the remaining at 2 h, 10 µM is less than 5% in [11] and more than 50% in series [12].
Regarding `COCC(=O)O[C@]1(CCN(C)CCCc2nc3ccccc3[nH]2)CCc2cc(F)ccc2[C@@H]1C(C)C` [MIBEFRADIL], the Activity in the series on A549 [13] is on record as 12%; with A549 [14], 10.9%; in the series on A549 [15], 66.1%; in the series with A549 [16], 10%; with A549 [17] it was 9.6%; in the series on A549 [18], 11.2%. The values for the Activity in the series on A549 [19] and with A549 [20] were 13.4% and 66.8%, respectively. For the same compound, the IC50 in the series on A549 [9] is 31.4 µM.
Take `CC(=O)CC(c1ccccc1)c1c(O)c2ccccc2oc1=O` (stereo not drawn) [WARFARIN]: the fraction unbound at 4 h, 10 µM is 0.022 in [21] and 0.017 in series [22].

The IC50 is the concentration at which inhibition is half-maximal.
